Measurements: US11572394B2, “Peptides for targeting LRP6-overexpressed cells” (PASTEUR INSTITUTE OF IRAN, priority 2020, dated 2023)
Where a SMILES comes first, the peptide text is derived from it. Bridges are numbered along the chain shown (N, C = ends). Where no end group is shown, it is not given here.

Columns and labels:
Format in all cases: cell-based, human
[1] = tested on: Wnt signaling pathway, HCT116 cell line; assay: Real-time PCR of LRP6 and downstream genes of the Wnt signaling pathway; details: treated against untreated
Description: (§1) In this example, the effect of exemplary peptides on the expression of LRP6 and downstream genes of the Wnt signaling pathway, such as β-catenin, cyclin D1, and C-MYC, was evaluated at transcription level using real-time PCR and at translation level using Western blotting. The Gapdh gene was used as the reference gene. The expression fold change of more than 2 times (treated cell against untreated cell) was defined as increasing expression, and cases with a fold change of 0.5 to 2 were unchanged, and cases with expression fold change less than 0.5 were considered as a reduction in expression.

[2] = tested on: Wnt signaling pathway, SW480 cell line; assay: as above; details: treated against untreated
Description: as §1

[3] = tested on: Wnt signaling pathway, HUVEC cell line; assay: as above; details: treated against untreated
Description: as §1

SW480 = assay: Annexin V/PI flow cytometry apoptosis assay; details: 24 hours, p<0.05; for cell death compared with HUVEC cell line: SW480, 1 mM; for cell death of SW480 compared with HCT116 cell line: 1 mM
Description: (§2) In this example, the apoptotic effect of exemplary peptides on cancer cells was examined by analyzing the number of apoptotic cells in HCT116 and SW480 and HUVEC cell lines before and after treatment with 1 mM of each exemplary peptide for 24 hours. Annexin V and propidium iodide (PI) staining were used to evaluate the apoptosis induced by treatment with exemplary peptides in each cell line. Stained cells may be counted by flow cytometry to calculate the percentage of apoptosis (Annexin V positive and PI negative) and necrosis percentage (Annexin V positive and […]) for each cell line.
(§3) The percentage of Annexin V positive and PI negative cells were considered early apoptosis, and the percentage of both Annexin positive and PI-positive cells was considered late apoptosis and necrosis. The sum of these two groups of cells was considered as the cell death rate.

HCT116 = assay: Annexin V/PI flow cytometry apoptosis assay; details: 24 hours, p<0.05; for cell death compared with HUVEC cell line: HCT116, 1 mM
Description: as §2, §3

[4] = tested on: Wnt signaling pathway, HCT116 cell line; assay: Western blotting of LRP6 and β-catenin proteins with signal densitometry; details: HCT116, Western blot signal densitometry
Description: as §1
(§4) Also, the effect of exemplary peptides on the levels of LRP6 and β-catenin proteins in the β-catenin/Wnt signaling pathway was investigated by Western blotting. Also, each protein's relative expression was determined through signal densitometry of each Western blot band.

[5] = tested on: Wnt signaling pathway, SW480 cell line; assay: as above; details: SW480, Western blot signal densitometry
Description: as §1, §4

[6] = tested on: Wnt signaling pathway, HUVEC cell line; assay: as above; details: Western blot signal densitometry
Description: as §1
Also, the effect of exemplary peptides on the levels of LRP6 and β-catenin proteins in the β-catenin/Wnt signaling pathway was investigated by Western blotting. Also, each protein's relative expression was determined through signal densitometry of each Western blot band. FIG. 11A illustrates relative expression β-actin, β-catenin, and LRP6 in SW480, HCT116, and HUVEC cell lines, consistent with one or more exemplary embodiments of the present disclosure. Referring to FIG. 11A, the relative expressions of β-catenin and LRP6 in SW480 and HCT116 were higher than HUVEC as a normal cell.

Molecule	expression of C-MYC gene [1]	expression of LRP6 gene [1]	expression of cyclin D1 gene [1]	expression of β-catenin gene [1]	expression of C-MYC gene [2]	expression of LRP6 gene [2]	expression of cyclin D1 gene [2]	expression of β-catenin gene [2]	expression of C-MYC gene [3]	expression of LRP6 gene [3]	expression of cyclin D1 gene [3]	expression of β-catenin gene [3]	cell death compared with HUVEC cell line (SW480)	cell death rate of HCT116 compared with SW480 (HCT116; 1 mM)	cell death compared with HUVEC cell line (HCT116)	decrease of β-catenin protein level [4]	decrease of β-catenin protein level [5]	effect on β-catenin protein content [6]	cell death of SW480 compared with HCT116 cell line (SW480)
CC[C@H](C)[C@H](NC(=O)[C@H](CCC(=O)O)NC(=O)[C@H](CC(C)C)NC(=O)CNC(=O)[C@H](Cc1c[nH]cn1)NC(=O)[C@H](CO)NC(=O)CNC(=O)[C@H](CCCCN)NC(=O)[C@H](CCCNC(=N)N)NC(=O)[C@H](CCCNC(=N)N)NC(=O)[C@H](Cc1c[nH]cn1)NC(=O)[C@H](CCCCN)NC(=O)[C@@H](NC(=O)[C@H](CS)NC(=O)[C@@H](NC(=O)[C@@H](N)CCC(N)=O)C(C)C)[C@@H](C)O)C(=O)N[C@@H](Cc1ccccc1)C(=O)N[C@@H](CCC(N)=O)C(=O)N[C@@H](CCCNC(=N)N)C(=O)N[C@@H](CS)C(=O)N[C@@H](Cc1ccc(O)cc1)C(=O)O [Pep-2] (H-QVCTKHRRKGSHGLEIFQRCY-OH; N-terminus and C-terminus assumed)	reduced	did not change	reduced	reduced	reduced	did not change	reduced	reduced	did not change	did not change	did not change	did not change	significantly higher	significantly higher	significantly higher	20%	20%		
NGYITFQDGNDYFRFPLNN [Pep-3]	did not change	did not change	did not change	did not change	did not change	did not change	did not change	did not change	did not change	did not change	did not change	did not change				no significant effect	no significant effect	no significant effect	
CC[C@H](C)[C@@H]1NC(=O)[C@H](CCCCN)NC(=O)[C@H](CO)NC(=O)[C@H](Cc2c[nH]c3ccccc23)NC(=O)[C@H](Cc2ccccc2)NC(=O)[C@H](Cc2c[nH]cn2)NC(=O)[C@H](CCCNC(=N)N)NC(=O)[C@H](C)NC(=O)[C@H](CS)NC(=O)[C@@H](N)CSSC[C@@H](C(=O)O)NC1=O [Pep-4] (H-CCARHFWSKIC-OH; disulfide 1-11)	reduced	did not change	reduced	reduced	reduced	did not change	reduced	reduced	have not changed	have not changed	have not changed	have not changed	significantly higher			20%	20%		significantly higher
NSSSLSSGSGNNANGNFLTYY [Pep-1]	did not change	did not change	did not change	did not change	did not change	did not change	did not change	did not change	did not change	did not change	did not change	did not change	significantly higher		significantly higher	no significant effect	no significant effect	no significant effect	significantly higher
Wnt5a: Wnt5a, effective ligand for non-canonical Wnt signaling pathway, positive control (protein, UniProt P41221 62-380, looked up) Protein Wnt-5a: IIGAQPLCSQLAGLSQGQKKLCHLYQDHMQYIGEGAKTGIKECQYQFRHRRWNCSTVDNTSVFGRVMQIGSRETAFTYAVSAAGVVNAMSRACREGELSTCGCSRAARPKDLPRDWLWGGCGDNIDYGYRFAKEFVDARERERIHAKGSYESARILMNLHNNEAGRRTVYNLADVACKCHGVSGSCSLKTCWLQLADFRKVGDALKEKYDSAAAMRLNSRGKLVQVNSRFNSPTTQDLVYIDPSPDYCVRNESTGSLGTQGRLCNKTSEGMDGCELMCCGRGYDQFKTVQTERCHCKFHWCCYVKCKKCTEIVDQFVCK	did not change	did not change	did not change	did not change	did not change	did not change	did not change	did not change	did not change	did not change	did not change	did not change							
